We go through four molecules from EP4186488A1, “A TOPICAL COMPOSITION” (Unilever IP Holdings B.V., priority 2021, dated 2023).

SMILES strings stand for the structures.

For this assay, the system named is Human primary melanocytes. The assay can be described thus: melanin content assay (MCA). Type of assay: cell-based. Particulars: 72 hours incubation with active(s), wt% of active(s) as listed per example, OD 405nm, untreated cells = 100% melanin content. The method, then: In-vitro studies on the effect of the combination of the actives on melanin inhibition using melanin content assay (MCA) was used. The method is described below. Human primary melanocytes were grown in melanocytes growth medium (MGM) with human melanocyte growth supplement. 500 µL/well (5X10^4 cells/well) of this solution was plated in a 24 wells plate and incubated in an incubator (Thermo Scientific, Model 3111) at 37°C with 5% CO2 atmosphere. After 24 hours of incubation, cell cultures were treated with the lead actives either dissolved in water or DMSO. The cells were again incubated for 72 hours in an incubator (Thermo Scientific, Model 3111; conditions: 5% CO2, at 37°C). Comparative vehicle controls of 0.1 % (v/v) DMSO or media control (for aqueous actives) were also set up simultaneously. At the end of the incubation period, cell viability was determined using the calcein method. After calcein fluorescence readings were obtained, drained the cells and added fresh 0.15 ml of 1N NaOH (in 10% DMSO) per well. Cells were lysed by resuspension and incubation (60 °C/1 hr.). Then, 0.12 ml of this lysate was transferred to a fresh […] plate and measured OD405nm in a TECAN M1000 plate reader (estimate of relative melanin content). The spectrophotometric OD at 405nm for untreated cells (No active) is considered as 100% melanin content, with respect to this, treatment (active) percentage is calculated.
Regarding `NC(=O)c1cccnc1` [B, Niacinamide], the “% melanin inhibition” value worked out at 7.4%.

On to `NC(=O)c1cccnc1` [C, Niacinamide], for which the “% melanin inhibition” value was found to be 9.2%. As for `NC(=O)c1cccnc1` [D, Niacinamide], the figure is 6.1%; as for `CCCCCCC(O)CCCCCCCCCCC(=O)O` (stereo not shown) [E, 12-hydroxystearic acid], 4.1%.
